Experimental data as given in patent US20150094327A1, “COMPOSITIONS AND METHODS FOR […]” (priority 2012, published 2015).
“Also recorded” adds a separate entry of the source. Read-outs that look alike come from different tables or passages of the source.

How the values were obtained:
vaccinia virus WR = assay: microbe, parasite or virus in culture; type: cell-based; conditions: for IC50: Orthopoxvirus vaccinia
fowlpox resolvase = assay: Holliday junction substrate cleavage by fowlpox resolvase, gel based assay; type: biochemical, fowlpox virus; conditions: authentic Holliday junction substrates in vitro
[1] = Cytotoxicity, CellTiter-Glo Luminescent Cell Viability Assay; conditions: for Cytotoxicity, LD50: CellTiter-Glo; for cytotoxicity: compared with compound 1
fowlpox virus resolvase = biological target: T1, fowlpox virus resolvase (Fowlpox virus, UniProt Q9J546); assay: Fluorescence polarization (FP) assay of bulged DNA substrate cleavage by fowlpox resolvase; type: biochemical; conditions: for activity in the FP assay: compared with compound 1 or with the N-hydroxy parent; for IC50: off-center bulge substrate 2 nM, 10 nM fowlpox resolvase, 37° C., 1 hr
T1 sequence (Q9J546 1-156): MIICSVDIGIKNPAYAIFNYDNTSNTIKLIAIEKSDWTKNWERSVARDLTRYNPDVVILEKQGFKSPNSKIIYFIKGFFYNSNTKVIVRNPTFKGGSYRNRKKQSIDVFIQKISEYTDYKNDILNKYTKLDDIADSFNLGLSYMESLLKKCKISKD

variola topoisomerase = variola topoisomerase (Variola virus, UniProt P32989); type: biochemical
Chain of variola topoisomerase (P32989 whole entry, looked up): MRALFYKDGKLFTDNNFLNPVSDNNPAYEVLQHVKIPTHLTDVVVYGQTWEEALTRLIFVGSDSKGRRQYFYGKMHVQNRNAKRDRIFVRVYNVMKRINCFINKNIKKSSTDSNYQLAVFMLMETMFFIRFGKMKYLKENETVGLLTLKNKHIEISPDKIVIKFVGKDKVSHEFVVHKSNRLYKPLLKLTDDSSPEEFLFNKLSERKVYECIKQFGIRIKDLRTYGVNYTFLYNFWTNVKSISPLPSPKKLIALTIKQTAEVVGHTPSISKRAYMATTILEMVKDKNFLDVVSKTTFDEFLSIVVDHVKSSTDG

[2] = 48 h, read-out: Antiviral assay, IC50

Row | SMILES | IC50 (vaccinia virus WR; [2]) [µM] | IC50 (vaccinia virus WR; read-out: antiviral assays IC50) [µM] | inhibition of Holliday junction cleavage (fowlpox resolvase) | Cytotoxicity, LD50 [1] [µM] | activity in the FP assay (fowlpox virus resolvase) | IC50 (fowlpox virus resolvase) [µM] | Log P (Log P (hydrophobicity)) | cytotoxicity [1] | antiviral activity (vaccinia virus WR) | inhibition of variola topoisomerase activity (variola topoisomerase)
1 | O=c1c(-c2ccccc2)c(O)c2cc(-c3cccc(-c4ccccc4)c3)cnc2n1O [Compound 1, 6-(Biphenyl-3-yl)-1,4-dihydroxy-3-phenyl-1,8-naphthyridin-2(1/H)-one] | 4 ± 1 | 4 | effective inhibition | 13 ± 4 | – | – | – | – | – | –
2 | O=c1c(-c2ccccc2)c(O)c2cc(CCc3ccc(C(F)(F)F)cc3)cnc2n1O [Compound 2, 1,4-Dihydroxy-3-phenyl-6-(4-(trifluoromethyl)phenethyl)-1,8-naphthyridin-2(1H)-one] | 4 ± 1 | – | – | 15 ± 12 | slightly less potent | 3 ± 2 | 4.94 | no reduction in cytotoxicity | – | –
3 | O=c1c(-c2ccccc2)c(O)c2cc(/C=C/c3ccc(C(F)(F)F)cc3)cnc2n1OCc1ccccc1 [Compound 3] | > 350 | – | – | – | – | > 250 | 6.85 | – | – | –
4 | COc1ccc(CCc2cnc3c(c2)c(O)c(-c2ccccc2)c(=O)n3O)cc1 [Compound 4, 1,4-Dihydroxy-6-(4-methoxyphenethyl)-3-phenyl-1,8-naphthyridin-2(1H)-one] | 11 ± 1 | – | – | 10 ± 1 | slightly less potent | – | – | no reduction in cytotoxicity | – | –
5 | CCOC(=O)c1c(O)c2cc(CCc3ccc(C(F)(F)F)cc3)cnc2n(O)c1=O [Compound 5, Ethyl 1,4-dihydroxy-2-oxo-6-(4-(trifluoromethyl)phenethyl)-1,2-dihydro-1,8-naphthyridine-3-carboxylate] | 12 ± 1 | – | – | 20 ± 12 | – | 14 ± 7 | 3.60 | – | – | –
6 | CCOC(=O)c1c(O)c2cc(/C=C/c3ccc(C(F)(F)F)cc3)cnc2n(OCc2ccccc2)c1=O [Compound 6, (E)-Ethyl 1-(benzyloxy)-4-hydroxy-2-oxo-6-(4-(trifluoromethyl)styryl)-1,2-dihydro-1,8-naphthyridine-3-carboxylate] | > 350 | – | – | – | abolished activity | > 250 | 5.50 | – | – | –
7 | CCOC(=O)c1c(O)c2cc(-c3cccc(OC)n3)cnc2n(O)c1=O [Compound 7, Ethyl 1,4-dihydroxy-6-(6-methoxypyridin-2yl)-2-oxo-1,2-dihydro-1,8-naphthyridine-3-carboxylate] | 25 ± 16 | – | inhibition of cleavage | 156 ± 28 | slight increase over compound 1 | 11 ± 2 | 1.43 | greatly increased | slightly increased; also recorded: showed antiviral activity at concentrations below cytotoxic levels | no Inhibitory activity; also recorded: lack of inhibition
8 | CCOC(=O)c1c(O)c2cc(-c3cccc(OC)n3)cnc2n(OCc2ccccc2)c1=O [Compound 8, Ethyl 1-(benzyloxy)-4-hydroxy-6-(6-methoxypyridin-2-yl)-2-oxo-1,2-dihydro-1,8-naphthyridine-3-carboxylate] | > 350 | – | – | – | abolished activity | > 250 | 3.54 | – | – | –
